According to US10246429B2, “Vinyl fluoride cyclopropyl fused thiazin-2-amine compounds as beta-secretase inhibitors and methods of use” (AMGEN INC., priority 2015, dated 2019):
Blank lines part the entries; values can stand above or below the molecule they belong to.

What was measured:
BACE1 [1] = target: T1, BACE1 (Homo sapiens (Human), UniProt P56817); assay: BACE1 cell assay; type: cell-based
Target sequence in this assay (P56817 46-501, species assumed): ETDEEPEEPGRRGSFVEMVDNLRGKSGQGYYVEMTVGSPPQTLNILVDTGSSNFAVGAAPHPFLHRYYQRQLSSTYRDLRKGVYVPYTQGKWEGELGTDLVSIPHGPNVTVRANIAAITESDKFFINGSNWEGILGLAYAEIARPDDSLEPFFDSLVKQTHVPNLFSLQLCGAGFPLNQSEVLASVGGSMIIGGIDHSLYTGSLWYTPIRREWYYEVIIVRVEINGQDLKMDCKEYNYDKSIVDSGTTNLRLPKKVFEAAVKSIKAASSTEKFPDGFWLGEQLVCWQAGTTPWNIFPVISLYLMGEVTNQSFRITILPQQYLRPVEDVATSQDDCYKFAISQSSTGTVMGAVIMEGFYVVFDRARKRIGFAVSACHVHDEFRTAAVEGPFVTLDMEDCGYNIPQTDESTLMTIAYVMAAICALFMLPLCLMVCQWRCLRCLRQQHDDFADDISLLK

Cathepsin D (CatD) = Cathepsin D (CatD) (Homo sapiens (Human), UniProt P07339); assay: CatD assay; type: biochemical; details: read-out: IC50 IP (μM) CatD
BACE2 = BACE2 (Homo sapiens (Human), UniProt Q9Y5Z0); assay: In vitro enzymatic BACE2 FRET assay; type: biochemical; details: read-out: IC50 IP (μM) BACE2 Enzyme
Source text: (§1) In Vitro Enzymatic BACE1 and BACE2 FRET (Fluorescence Resonance Energy Transfer) Assays (Enzyme Assay Data in Table 1)

BACE1 [2] = target: T1, BACE1; assay: In vitro enzymatic BACE1 FRET assay; type: biochemical; details: read-out: IC50 IP (μM) BACE1 Enzyme
Target sequence in this assay (P56817 46-501): as the sequence (P56817 46-501, species assumed) above
Source text: as §1

[3] = read-out: IC50 IP (μM) BACE1 Cell

Sequence of Cathepsin D (CatD) (P07339 65-412, species assumed): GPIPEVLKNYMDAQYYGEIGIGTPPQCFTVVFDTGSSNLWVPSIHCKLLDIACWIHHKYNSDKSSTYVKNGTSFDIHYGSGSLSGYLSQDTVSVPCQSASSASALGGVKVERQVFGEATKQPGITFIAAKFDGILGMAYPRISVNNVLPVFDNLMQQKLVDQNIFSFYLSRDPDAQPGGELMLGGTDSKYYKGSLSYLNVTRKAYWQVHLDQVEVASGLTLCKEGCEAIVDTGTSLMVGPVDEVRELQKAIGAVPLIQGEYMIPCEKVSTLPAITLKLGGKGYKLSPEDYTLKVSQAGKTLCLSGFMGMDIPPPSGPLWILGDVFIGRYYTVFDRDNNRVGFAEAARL
Sequence of BACE2 (Q9Y5Z0 63-518): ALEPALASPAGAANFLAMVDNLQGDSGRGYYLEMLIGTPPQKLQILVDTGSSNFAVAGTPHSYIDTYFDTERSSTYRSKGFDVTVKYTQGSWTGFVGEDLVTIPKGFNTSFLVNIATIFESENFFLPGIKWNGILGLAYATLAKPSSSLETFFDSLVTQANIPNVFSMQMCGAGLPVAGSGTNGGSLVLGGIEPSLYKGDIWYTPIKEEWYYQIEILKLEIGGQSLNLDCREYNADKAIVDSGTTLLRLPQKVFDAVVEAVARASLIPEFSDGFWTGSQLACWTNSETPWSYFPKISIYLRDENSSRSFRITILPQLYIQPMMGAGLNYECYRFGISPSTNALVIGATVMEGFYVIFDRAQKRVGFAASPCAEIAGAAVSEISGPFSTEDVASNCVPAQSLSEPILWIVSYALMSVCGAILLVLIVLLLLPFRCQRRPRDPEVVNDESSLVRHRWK

SMILES: CC1CCN(C(=O)[C@]23C[C@H]2[C@@](C)(c2cc(/C=C(\F)c4ccc(C#N)cn4)ccc2F)N=C(N)S3)CC1 [Example 147, 6-((Z)-2-(3-((1S,5S,6S)-3-amino-5-methyl-1-(4-methylpiperidine-1-carbonyl)-2-thia-4-azabicyclo[4.1.0]hept-3-en-5-yl)-4-fluorophenyl)-1-fluorovinyl)nicotinonitrile]
IC50 (BACE1 [1]; [3]): 0.003 µM | IC50 (Cathepsin D (CatD)): 93.9 µM | IC50 (BACE2): 0.00486 µM | IC50 (BACE1 [2]): 0.000793 µM

SMILES: COC[C@]12C[C@H]1[C@@](C)(c1cc(/C=C(\F)c3cnc(OCc4cc(C)on4)cn3)ccc1F)N=C(N)S2 [Example 275]
IC50 (BACE1 [1]; [3]): 2 µM | IC50 (Cathepsin D (CatD)): 144 µM | IC50 (BACE2): 1.2 µM | IC50 (BACE1 [2]): 0.248 µM

SMILES: C[C@]1(c2cc(/C=C(\F)c3ccc(C#CC4CC4)cn3)ccc2F)N=C(N)S[C@@]2(C(=O)N3CCOCC3)C[C@H]21 [Example 357, ((1S,5S,6S)-3-amino-5-(5-((Z)-2-(5-(cyclopropylethynyl)pyridin-2-yl)-2-fluorovinyl)-2-fluorophenyl)-5-methyl-2-thia-4-azabicyclo[4.1.0]hept-3-en-1-yl)(morpholino)methanone]
IC50 (BACE1 [1]; [3]): 0.155 µM | IC50 (Cathepsin D (CatD)): 29.1 µM | IC50 (BACE2): 0.43 µM | IC50 (BACE1 [2]): 0.015 µM

SMILES: CNC(=O)[C@]12C[C@H]1[C@@](C)(c1cc(/C=C(\F)c3ccc(OC(F)(F)F)cn3)ccc1F)N=C(N)S2 [Example 364, (1S,5S,6S)-3-amino-5-(2-fluoro-5-((Z)-2-fluoro-2-(5-(trifluoromethoxy)pyridin-2-yl)vinyl)phenyl)-N,5-dimethyl-2-thia-4-azabicyclo[4.1.0]hept-3-ene-1-carboxamide]
IC50 (BACE1 [1]; [3]): 0.025 µM | IC50 (Cathepsin D (CatD)): 256 µM | IC50 (BACE2): 0.285 µM | IC50 (BACE1 [2]): 0.008 µM

SMILES: CN(C)C(=O)[C@]12C[C@H]1[C@@](C)(c1cc(/C=C(\F)c3ncc(C#N)s3)ccc1F)N=C(N)S2 [Example 219, (1S,5S,6S)-3-amino-5-(5-((Z)-2-(5-cyanothiazol-2-yl)-2-fluorovinyl)-2-fluorophenyl)-N,N,5-trimethyl-2-thia-4-azabicyclo[4.1.0]hept-3-ene-1-carboxamide]
IC50 (BACE1 [1]; [3]): 0.005 µM | IC50 (Cathepsin D (CatD)): 110 µM | IC50 (BACE2): 0.007 µM | IC50 (BACE1 [2]): 0.004 µM

SMILES: CN(C)C(=O)[C@]12C[C@H]1[C@@](C)(c1cc(/C=C(\F)c3cn4cc(C#N)ccc4n3)ccc1F)N=C(N)S2 [Example 246, (1S,5S,6S)-3-amino-5-(5-((Z)-2-(6-cyanoimidazo[1,2-a]pyridin-2-yl)-2-fluorovinyl)-2-fluorophenyl)-N,N,5-trimethyl-2-thia-4-azabicyclo[4.1.0]hept-3-ene-1-carboxamide]
IC50 (BACE1 [1]; [3]): 0.05 µM | IC50 (Cathepsin D (CatD)): 53.1 µM | IC50 (BACE2): 0.39 µM | IC50 (BACE1 [2]): 0.171 µM

SMILES: CNC(=O)[C@]12C[C@H]1[C@@](C)(c1cc(/C=C(\F)c3ccc(C#CC4CC4)cn3)ccc1F)N=C(N)S2 [Example 358, (1S,5S,6S)-3-amino-5-(5-((Z)-2-(5-(cyclopropylethynyl)pyridin-2-yl)-2-fluorovinyl)-2-fluorophenyl)-N,5-dimethyl-2-thia-4-azabicyclo[4.1.0]hept-3-ene-1-carboxamide]
IC50 (BACE1 [1]; [3]): 0.256 µM | IC50 (Cathepsin D (CatD)): 39.8 µM | IC50 (BACE2): 0.415 µM | IC50 (BACE1 [2]): 0.018 µM

SMILES: C[C@H]1CN(C(=O)[C@]23C[C@H]2[C@@](C)(c2cc(/C=C(\F)c4ccc(C#N)cn4)ccc2F)N=C(N)S3)CCO1 [Example 321, 6-((Z)-2-(3-((1S,5S,6S)-3-amino-5-methyl-1-((S)-2-methylmorpholine-4-carbonyl)-2-thia-4-azabicyclo[4.1.0]hept-3-en-5-yl)-4-fluorophenyl)-1-fluorovinyl)nicotinonitrile]
IC50 (BACE1 [1]; [3]): 0.0027 µM | IC50 (Cathepsin D (CatD)): 578 µM | IC50 (BACE2): 0.111 µM | IC50 (BACE1 [2]): 0.0035 µM

SMILES: CC(C)[C@H]1CN(C(=O)[C@]23C[C@H]2[C@@](C)(c2cc(/C=C(\F)c4ccc(C#N)cn4)ccc2F)N=C(N)S3)CCO1 [Example 316, 6-((Z)-2-(3-((1S,5S,6S)-3-amino-1-((S)-2-isopropylmorpholine-4-carbonyl)-5-methyl-2-thia-4-azabicyclo[4.1.0]hept-3-en-5-yl)-4-fluorophenyl)-1-fluorovinyl)nicotinonitrile]
IC50 (BACE1 [1]; [3]): 0.007 µM | IC50 (Cathepsin D (CatD)): 170 µM | IC50 (BACE2): 0.033 µM | IC50 (BACE1 [2]): 0.003 µM

SMILES: C[C@]1(c2cc(/C=C(\F)c3ccc(C#C[Si](C)(C)C)cn3)ccc2F)N=C(N)S[C@@]2(C(=O)N3CCOCC3)C[C@H]21 [Example 354, ((1S,5S,6S)-3-amino-5-(2-fluoro-5-((Z)-2-fluoro-2-(5-((trimethylsilyl)ethynyl)pyridin-2-yl)vinyl)phenyl)-5-methyl-2-thia-4-azabicyclo[4.1.0]hept-3-en-1-yl)(morpholino)methanone]
IC50 (BACE1 [1]; [3]): 0.058 µM | IC50 (Cathepsin D (CatD)): 26 µM | IC50 (BACE2): 0.412 µM | IC50 (BACE1 [2]): 0.013 µM

SMILES: C#CCOc1cnc(/C(F)=C/c2ccc(F)c([C@@]3(C)N=C(N)S[C@@]4(C(C)=O)C[C@H]43)c2)cn1 [Example 234, 1-((1S,5S,6S)-3-amino-5-(2-fluoro-5-((Z)-2-fluoro-2-(5-(prop-2-yn-1-yloxy)pyrazin-2-yl)vinyl)phenyl)-5-methyl-2-thia-4-azabicyclo[4.1.0]hept-3-en-1-yl)ethanone]
IC50 (BACE1 [1]): 0.0111 µM | IC50 (Cathepsin D (CatD)): 125 µM | IC50 (BACE2): 0.581 µM | IC50 (BACE1 [2]): 0.0059 µM

SMILES: C#CCOc1cnc(/C(F)=C/c2ccc(F)c([C@@]3(C)N=C(N)S[C@@]4(S(C)(=O)=O)C[C@H]43)c2)cn1 [Example 227, (1R,5S,6S)-5-(2-fluoro-5-((Z)-2-fluoro-2-(5-(prop-2-yn-1-yloxy)pyrazin-2-yl)vinyl)phenyl)-5-methyl-1-(methylsulfonyl)-2-thia-4-azabicyclo[4.1.0]hept-3-en-3-amine]
IC50 (BACE1 [1]): 0.0105 µM | IC50 (Cathepsin D (CatD)): 55.1 µM | IC50 (BACE2): 0.058 µM | IC50 (BACE1 [2]): 0.0006 µM

SMILES: CN(C)C(=O)[C@]12C[C@H]1[C@@](C)(c1cc(/C=C(\F)c3cnc(OCC4CC4)cn3)ccc1F)N=C(N)S2 [Example 211, (1S,5S,6S)-3-amino-5-(5-((Z)-2-(5-(cyclopropylmethoxy)pyrazin-2-yl)-2-fluorovinyl)-2-fluorophenyl)-N,N,5-trimethyl-2-thia-4-azabicyclo[4.1.0]hept-3-ene-1-carboxamide]
IC50 (BACE1 [1]; [3]): 0.247 µM | IC50 (Cathepsin D (CatD)): 67.8 µM | IC50 (BACE2): 0.044 µM | IC50 (BACE1 [2]): 0.022 µM

SMILES: C[C@]1(c2cc(/C=C(\F)c3ccc(C#N)cn3)ccc2F)N=C(N)S[C@@]2(C(=O)N3CCOC4(COC4)C3)C[C@H]21 [Example 308, 6-((Z)-2-(3-((1S,5S,6S)-3-amino-5-methyl-1-(2,5-dioxa-8-azaspiro[3.5]nonane-8-carbonyl)-2-thia-4-azabicyclo[4.1.0]hept-3-en-5-yl)-4-fluorophenyl)-1-fluorovinyl)nicotinonitrile]
IC50 (BACE1 [1]; [3]): 0.001 µM | IC50 (Cathepsin D (CatD)): 296 µM | IC50 (BACE2): 0.013 µM | IC50 (BACE1 [2]): 0.0021 µM

SMILES: C[C@H]1[C@@H](F)CCN1C(=O)[C@]12C[C@H]1[C@@](C)(c1cc(/C=C(\F)c3ccc(C#N)cn3)ccc1F)N=C(N)S2 [Example 306, 6-((Z)-2-(3-((1S,5S,6S)-3-amino-1-((2S,3S)-3-fluoro-2-methylpyrrolidine-1-carbonyl)-5-methyl-2-thia-4-azabicyclo[4.1.0]hept-3-en-5-yl)-4-fluorophenyl)-1-fluorovinyl)nicotinonitrile]
IC50 (BACE1 [1]; [3]): 0.001 µM | IC50 (Cathepsin D (CatD)): 16.2 µM | IC50 (BACE2): 0.111 µM | IC50 (BACE1 [2]): 0.002 µM

IC50 (BACE1 [1]; [3]): 0.026 µM | IC50 (Cathepsin D (CatD)): 363 µM | IC50 (BACE2): 0.917 µM | IC50 (BACE1 [2]): 0.003 µM
SMILES: C#C[C@H](C)Oc1cnc(/C(F)=C/c2ccc(F)c([C@@]3(C)N=C(N)S[C@@]4(COC)C[C@H]43)c2)cn1 [Example 264]

SMILES: CC#C/C(F)=C/c1ccc(F)c([C@@]2(C)N=C(N)S[C@@]3(C(=O)N(C)C)C[C@H]32)c1 [Example 209, (1S,5S,6S)-3-amino-5-(2-fluoro-5-((Z)-2-fluoropent-1-en-3-yn-1-yl)phenyl)-N,N,5-trimethyl-2-thia-4-azabicyclo[4.1.0]hept-3-ene-1-carboxamide]
IC50 (BACE1 [1]; [3]): 0.324 µM | IC50 (Cathepsin D (CatD)): 56 µM | IC50 (BACE2): 0.01 µM | IC50 (BACE1 [2]): 0.094 µM

SMILES: C[C@]1(c2cc(/C=C(\F)c3ccc(C4COC4)cn3)ccc2F)N=C(N)S[C@@]2(C(=O)N3CCOCC3)C[C@H]21 [Example 340, ((1S,5S,6S)-3-amino-5-(2-fluoro-5-((Z)-2-fluoro-2-(5-(oxetan-3-yl)pyridin-2-yl)vinyl)phenyl)-5-methyl-2-thia-4-azabicyclo[4.1.0]hept-3-en-1-yl)(morpholino)methanone]
IC50 (BACE1 [1]; [3]): 0.457 µM | IC50 (Cathepsin D (CatD)): 298 µM | IC50 (BACE2): 3.21 µM | IC50 (BACE1 [2]): 0.545 µM

SMILES: CNC(=O)[C@]12C[C@H]1[C@@](C)(c1cc(/C=C(\F)c3cnc(Br)cn3)ccc1F)N=C(N)S2 [Example 163, (1S,5S,6S)-3-amino-5-(5-((Z)-2-(5-bromopyrazin-2-yl)-2-fluorovinyl)-2-fluorophenyl)-N,5-dimethyl-2-thia-4-azabicyclo[4.1.0]hept-3-ene-1-carboxamide]
IC50 (BACE1 [1]): 0.291 µM | IC50 (Cathepsin D (CatD)): 69.7 µM | IC50 (BACE2): 0.266 µM | IC50 (BACE1 [2]): 0.0249 µM

SMILES: COC(CNC(=O)[C@]12C[C@H]1[C@@](C)(c1cc(/C=C(\F)c3ccc(C#N)cn3)ccc1F)N=C(N)S2)OC [Example 341, (1S,5S,6S)-3-amino-5-(5-((Z)-2-(5-cyanopyridin-2-yl)-2-fluorovinyl)-2-fluorophenyl)-N-(2,2-dimethoxyethyl)-5-methyl-2-thia-4-azabicyclo[4.1.0]hept-3-ene-1-carboxamide]
IC50 (BACE1 [1]; [3]): 0.0011 µM | IC50 (Cathepsin D (CatD)): 6.8 µM | IC50 (BACE2): 0.024 µM | IC50 (BACE1 [2]): 0.003 µM

SMILES: COC(=O)[C@]12C[C@H]1[C@@](C)(c1cc(/C=C(\F)c3ccc(Cl)cn3)cc(F)c1F)N=C(N)S2 [Example 248, (1S,5S,6S)-methyl 3-amino-5-(5-((Z)-2-(5-chloropyridin-2-yl)-2-fluorovinyl)-2,3-difluorophenyl)-5-methyl-2-thia-4-azabicyclo[4.1.0]hept-3-ene-1-carboxylate]
IC50 (BACE1 [1]): 1.59 µM | IC50 (Cathepsin D (CatD)): 200 µM | IC50 (BACE2): 0.083 µM | IC50 (BACE1 [2]): 0.0625 µM
